Source: patent US11040048B2, “Medicament for treating influenza characterized by combining a Cap-dependent endonuclease inhibitor and an anti-influenza drug” (Shionogi & Co., Ltd., priority 2015, dated 2021)
Where “and” joins values, the source holds several entries; their conditions need not be identical. Identical values can stand only once. Like-named read-outs stand apart in the source and are kept apart here.

What was measured:
[1] = biological target: cap-dependent endonuclease (CEN); RNP fraction containing PB1-PB2-PA complex (Influenza A virus, UniProt P15659); experiment: biochemical
[2] = system: A/Victoria/3/75 (H3N2); experiment: microbe, parasite or virus in culture; type: cell-based; conditions: Influenza A virus, single agent, MDCK
[3] = system: A/PR/8/34 (H1N1); experiment: microbe, parasite or virus in culture; type: cell-based, influenza virus; conditions: single agent, MDCK
[4] = monkey, in vivo, po
[5] = rat, po
From the text: FIG. 1 is a result of measuring the plasma concentration of Compound III-1, after oral administration of prodrug Compound II-4, the parent compound of which is Compound III-1, to rat under non-fasting conditions.
FIG. 2 is a result of measuring the plasma concentration of Compound II-4, after oral administration of prodrug Compound II-4, the parent compound of which is Compound III-1, to rat under non-fasting conditions.

[6] = system: B/Maryland/1/59; experiment: microbe, parasite or virus in culture; type: cell-based, influenza virus
[7] = system: A/WSN/33 (H1N1); experiment: Synergistic CPE inhibitory effect confirming assay, MDCK cells; type: cell-based; conditions: Influenza A virus, single agent
[8] = system: A/HongKong/8/68 (H3N2); experiment: as above; type: cell-based; conditions: Influenza A virus, single agent
[9] = in vivo; set-up: species or system mice or SD rats
Experimental: (1) Experimental animals: mice or SD rats were used.
(2) Rearing condition: mice or SD rats were allowed free access to solid feed and sterilized tap water.
(3) Setting of dosage and grouping: Oral administration and intravenous administration were performed with the predetermined dosage. Grouping was set as below. (Dosage was changed per compound)
Oral administration 1 to 30 mg/kg (n=2 to 3)
Intravenous administration 0.5 to 10 mg/kg (n=2 to 3)
(4) Preparation of administration solutions: Oral administration was performed as solution or suspension. Intravenous administration was performed after solubilization.
(5) Routes of administration: Oral administration was performed mandatory into the stomach by oral sonde. Intravenous administration was performed from caudal vein by syringes with needle.
(6) Evaluation items: Blood was collected serially and concentration of a compound of the present invention in plasma was measured by LC/MS/MS.
(7) Statistical analysis: About transition of concentration of a compound of the present invention in plasma, the area under the plasma concentration versus time curve (AUC) was calculated by non-linear least-squares method program, WinNonlin (a registered trademark), and bioavailability (BA) of a compound of the present invention was calculated from AUCs of the oral administration group and the intravenous administration group. […]

[10] = system: influenza virus; experiment: CPE inhibitory effect confirming assay (WST-8); type: cell-based; conditions: unidentified influenza virus, read-out: CPE_EC50
[11] = system: influenza virus A; experiment: Synergistic CPE inhibitory effect confirming assay, summary for influenza A strains; type: cell-based
[12] = unidentified influenza virus, MDCK

SMILES: O=C1c2c(O)c(=O)ccn2N([C@@H]2c3ccccc3SCc3cccc(Cl)c32)[C@H]2COCCN12 (racemic) [Reference 682]
- IC50 [1]: 104 nM

SMILES: O=C1c2c(O)c(=O)ccn2N([C@@H]2c3ccccc3SCc3cccc(Cl)c32)[C@@H]2COCCN12 (racemic) [Reference 684]
- IC50 [1]: 19.7 nM

SMILES: O=C1c2c(O)c(=O)ccn2N([C@@H]2c3ccccc3CSc3ccccc32)[C@@H]2COCCN12 (racemic) [Reference 714]
- IC50 [1]: 95 nM

SMILES: O=C1c2c(O)c(=O)ccn2N([C@@H]2c3ccccc3CSc3ccccc32)[C@H]2COCCN12 (racemic) [Reference 715]
- IC50 [1]: 25.5 nM

SMILES: NC12CC3CC(CC(C3)C1)C2 [Amantadine]
- EC50 [2]: 2510 nM

SMILES: NC(=O)c1nc(F)c[nH]c1=O [Favipiravir]
- EC50 ([3]; Influenza A virus): 26900 nM

SMILES: CC(=O)Oc1c2n(ccc1=O)N([C@@H]1c3ccccc3SCc3c1ccc(F)c3F)[C@@H]1COCCN1C2=O [II-2]
- plasma concentration of prodrug in all plasma samples [4]: a determination limit or less

SMILES: COC(=O)OCOc1c2n(ccc1=O)N([C@@H]1c3ccccc3SCc3c1ccc(F)c3F)[C@@H]1COCCN1C2=O [II-4]
- concentration of prodrug in plasma samples ([5]; in vivo): a determination limit or less
- conversion of prodrug to parent compound in vivo after administration [5]: changed promptly to Compound III-1

SMILES: O=C1c2c(O)c(=O)ccn2N([C@@H]2c3ccccc3SCc3c2ccc(F)c3F)[C@@H]2COCCN12 [III-1]
- EC50 [2]: 3.48 nM
- EC50 ([3]; Influenza A virus): 4.95 nM
- EC50 [6, 12]: 14.7 nM
- EC50 [7]: 2.85 nM
- EC50 [8]: 2.08 nM

SMILES: O=C1c2c(O)c(=O)ccn2N([C@H]2c3ccc(F)cc3CSc3ccccc32)[C@@H]2COCCN12 [III-2]
- bioavailability [9]: 4.2%

SMILES: O=C1c2c(O)c(=O)ccn2N([C@@H]2c3ccccc3SCc3c2ccc(F)c3F)[C@@H]2CC3(CCOCC3)CCN12 [III-9]
- EC50 [10]: 0.864 nM

SMILES: O=C1c2c(O)c(=O)ccn2N([C@@H]2c3ccccc3SCc3c2ccc(F)c3F)[C@@H]2CC3(CCN12)COC3 [III-12]
- EC50 [10]: 0.656 nM

SMILES: [H]/N=C(\N)N[C@H]1C=C(C(=O)O)O[C@@H]([C@H](OC)[C@H](O)CO)[C@@H]1NC(C)=O [Laninamivir, Laninaminivir]
- proliferation inhibitory effect on influenza virus A (combination effect) [11]: synergistic
- EC50 ([3]; Influenza A virus): 213 nM
- EC50 [6, 12]: 110 nM

SMILES: CCOC(=O)C1=C[C@@H](OC(CC)CC)[C@H](NC(C)=O)[C@@H](N)C1 [Oseltamivir]
- EC50 [2]: 245 nM
- proliferation inhibitory effect on influenza virus A (combination effect) [11]: synergistic
- EC50 ([3]; Influenza A virus): 1830 nM
- EC50 [6, 12]: 864 nM
- EC50 [7]: 59300 nM
- EC50 [8]: 71.2 nM

SMILES: CCC(CC)[C@H](NC(C)=O)[C@@H]1[C@H](O)[C@@H](C(=O)O)C[C@H]1N=C(N)N [Peramivir, peramivir]
- proliferation inhibitory effect on influenza virus A (combination effect) [11]: synergistic
- EC50 [3]: 214 nM
- EC50 ([6]; single agent, B/Maryland/1/59, MDCK, read-out: EC50): 354 nM

SMILES: O=C1c2c(O)c(=O)ccn2N(C2c3ccccc3CSc3ccccc32)[C@@H]2CCCN12 (stereo partly shown) [Reference 583 or 584]
- IC50 [1]: 43.4 nM and 28.1 nM

SMILES: CC(N)C12CC3CC(CC(C3)C1)C2 (stereo not shown) [Rimantadine]
- EC50 [2]: 158 nM

SMILES: O=C(Nc1ncc([N+](=O)[O-])s1)c1ccccc1O [Tizoxanide]
- EC50 [2]: 8310 nM

SMILES: O=C(O)[C@H]1C2CCC(CC2)[C@@H]1Nc1nc(-c2c[nH]c3ncc(F)cc23)ncc1F [VX-787, (2S,3S)-3-((5-Fluoro-2-(5-fluoro-1H-pyrrolo[2,3-b]pyridin-3-yl)pyrimidin-4-yl)amino)bicyclo[2.2.2]octane-2-carboxylic Acid]
- proliferation inhibitory effect on influenza virus A (combination effect) [11]: synergistic
- EC50 ([3]; Influenza A virus): 9.38 nM

SMILES: CC(=O)N[C@H]1[C@H]([C@H](O)[C@H](O)CO)OC(C(=O)O)=C[C@@H]1N=C(N)N [Zanamivir]
- EC50 [6, 12]: 163 nM
